Holding throughout (type): in vivo
In one test the test system is Phakopsora pachyrhizi. The experiment in a line: Asian soybean rust (PHAKPA) disease control. Particulars: topical, high volume. In outline: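 Compounds in acetone diluted with nine volumes water containing 0.011% Tween 20, sprayed to run-off on two-week-old Williams 82 soybean seedlings, inoculated 3 days before or 1 day after treatment. Plants held 24 h in dark dew room at 22 °C, 100% RH, then at 23 °C; disease severity scored on sprayed leaves.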

The subject of a further test is Leptosphaeria nodorum. The experiment in a line: Wheat glume blotch (LEPTNO) disease control. The note with it: Parastagonospora nodorum, 24 h, High volume application, 1 Day Protectant, read-out: LEPTNO 1 DP disease control. The method, then: Technical grades of materials were dissolved in acetone, which were then mixed with nine volumes of water containing 110 ppm Triton X-100. The fungicide solutions were applied onto wheat seedlings using an automated booth sprayer to run-off. All sprayed plants were allowed to air dry prior to further handling. All fungicides were evaluated using the aforementioned method for their activity vs. all target diseases. Wheat leaf blotch and brown rust activity were also evaluated using track spray applications, in which case the fungicides were formulated as EC formulations, containing 0.1% Trycol 5941 in the spray solutions. Wheat plants (variety Yuma) were grown from seed in a greenhouse in 50% mineral soil/50% soil-less Metro mix until the first leaf was fully emerged, with 7-10 seedlings per pot. These plants were inoculated with an aqueous spore suspension of Leptosphaeria nodorum 24 hr after fungicide treatments. After inoculation the plants were kept in 100% relative humidity (one day in a dark dew chamber followed by two days in a lighted dew chamber at 20° C.) to permit spores to germinate and infect the leaf. The plants were then transferred to a greenhouse set at 20° C. for disease to develop. Fungicide formulation, application and disease assessment followed the procedures as described in the Example A.

Test [1] concerns Magnaporthe grisea; Anamorph: Pyricularia oryzae. The experiment in a line: whole plant or invertebrate. The note with it: 24 h, read-out: PYRIOR 1 DP disease control.
Test [2] deals with Mycosphaerella graminicola; Anamorph: Septoria tritici. In words: Leaf blotch of wheat (SEPTTR) disease control on wheat seedlings. Particulars: Zymoseptoria tritici; for pest or weed control at 121.5 g/ha: low volume application, 121.5 g/H. A digest of the protocol: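 Wheat seedlings (Yuma, first leaf emerged) sprayed to run-off with compound in acetone/water with 110 ppm Triton X-100, or track-sprayed as EC with 0.1% Trycol 5941. Septoria tritici spores inoculated before or after treatment. Dew chambers, then 20 °C greenhouse. Percent disease control derived from severity (0–100%) relative to untreated plants.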

The subject of test [3] is Blumeria graminis f. sp. hordei; Synonym: Erysiphe graminis f. sp. hordei. In words: Barley powdery mildew (ERYSGH) disease control. Particulars: 24 h, 1 Day Protectant, high volume, read-out: Disease Control ERYSGH 1 DP. As for the experimental part:
Technical grades of materials were dissolved in acetone, which were then mixed with nine volumes of water containing 110 ppm Triton X-100. The fungicide solutions were applied onto wheat seedlings using an automated booth sprayer to run-off. All sprayed plants were allowed to air dry prior to further handling. All fungicides were evaluated using the aforementioned method for their activity vs. all target diseases. Wheat leaf blotch and brown rust activity were also evaluated using track spray applications, in which case the fungicides were formulated as EC formulations, containing 0.1% Trycol 5941 in the spray solutions. Barley seedlings (variety Harrington) were propagated in soil-less Metro mix, with each pot having 8 to 12 plants, and used in the test when first leaf was fully emerged. Test plants were inoculated by dusting with infected stock plants 24 hr after fungicide treatments. After inoculation the plants were kept in a greenhouse set at 20° C. for disease to develop. Fungicide formulation, application and disease assessment on the sprayed leaves followed the procedures as described in the Example A.

The subject of the next test is Cercospora beticola. In words: Leaf spot of sugar beets (CERCBE) disease control. The note with it: 24 h, 1 Day Protectant, high volume, read-out: Disease Control CERCBE 1 DP. As for the experimental part:
Technical grades of materials were dissolved in acetone, which were then mixed with nine volumes of water containing 110 ppm Triton X-100. The fungicide solutions were applied onto wheat seedlings using an automated booth sprayer to run-off. All sprayed plants were allowed to air dry prior to further handling. All fungicides were evaluated using the aforementioned method for their activity vs. all target diseases. Wheat leaf blotch and brown rust activity were also evaluated using track spray applications, in which case the fungicides were formulated as EC formulations, containing 0.1% Trycol 5941 in the spray solutions. Sugar beet plants (variety HH88) were grown in soil-less Metro mix and trimmed regularly to maintain a uniform plant size prior to test. Plants were inoculated with a spore suspension 24 hr after fungicide treatments. Inoculated plants were kept in a dew chamber at 22° C. for 48 hr then incubated in a greenhouse set at 24° C. under a clear plastic hood with bottom ventilation until disease symptoms were fully expressed. Fungicide formulation, application and disease assessment on the sprayed leaves followed the procedures as described in the Example A.

Another test concerns Venturia inaequalis. In words: Apple scab (VENTIN) disease control. Particulars: 24 h, High volume application, 1 Day Protectant, read-out: VENTIN 1 DP disease control. As for the experimental part:
Technical grades of materials were dissolved in acetone, which were then mixed with nine volumes of water containing 110 ppm Triton X-100. The fungicide solutions were applied onto wheat seedlings using an automated booth sprayer to run-off. All sprayed plants were allowed to air dry prior to further handling. All fungicides were evaluated using the aforementioned method for their activity vs. all target diseases. Wheat leaf blotch and brown rust activity were also evaluated using track spray applications, in which case the fungicides were formulated as EC formulations, containing 0.1% Trycol 5941 in the spray solutions. Apple seedlings (variety McIntosh) were grown in soil-less Metro mix, with one plant per pot. Seedlings with two expanding young leaves at the top (older leaves at bottom of the plants were trimmed) were used in the test. Plants were inoculated with a spore suspension of Venturia inaequalis 24 hr after fungicide treatment and kept in a 22° C. dew chamber with 100% RH for 48 hr, and then moved to a greenhouse set at 20° C. for disease to develop. Fungicide formulation, application and disease assessment on the sprayed leaves followed the procedures as described in the Example A.

[4] abbreviates: 24 h, 1 Day Protectant, read-out: Disease Control PHAKPA 1DP.
The mark [5] stands for this setting: 72 h, 3 Day Curative, read-out: Disease Control PHAKPA 3DC.
[6] abbreviates: 24 h, High volume application, 1 Day Protectant, read-out: SEPTTR 1DP disease control.
Setting [7] is: 72 h, High volume application, 3 Day Curative, read-out: SEPTTR 3DC disease control.
The mark [8] stands for this setting: 24 h, Wheat Leaf Blotch, 1 Day Protectant, high volume application, read-out: Disease Control SEPTTR 1 DP 100 ppm.
Setting [9] is: 24 h, Wheat Leaf Blotch, 1 Day Protectant, read-out: Disease Control SEPTTR 1 DP 121.5 g/H.
Setting [10] is: 72 h, Wheat Leaf Blotch, 3 Day Curative, high volume application, read-out: Disease Control SEPTTR 3 DC 100 ppm.
Setting [11] is: 72 h, Wheat Leaf Blotch, 3 Day Curative, read-out: Disease Control SEPTTR 3 DC 121.5 g/H.

Molecules are shown by their SMILES. Where two headings read alike, the source gives them in different places.

Regarding `COc1ccnc(C(=O)N[C@H]2CCC[C@H](OCc3ccccc3)[C@@H](OCc3ccccc3)[C@H](C)OC2=O)c1OCOC(C)=O` [F30], the pest or weed control at 25 ppm lay in the range of 80 to 100% in the test on Phakopsora pachyrhizi (setting [4]) and 0 to 80% in the test on Phakopsora pachyrhizi (setting [5]). Moreover, the pest or weed control at 100 ppm is 80 to 100% with Leptosphaeria nodorum; 80 to 100% in test [1]; 80 to 100% in test [2] (setting [6]); 0 to 80% in test [2] (setting [7]); 0 to 80% in test [3]; 0 to 80% in the test with Cercospora beticola. In the test on Venturia inaequalis, the pest or weed control at 100 ppm lay within 80 to 100%.
As to `CCCO[C@H]1CCC[C@H](NC(=O)c2nccc(OC)c2OC(C)=O)C(=O)O[C@@H](C)[C@@H]1Oc1ccccc1` [F141], the pest or weed control at 25 ppm in the test with Phakopsora pachyrhizi (setting [4]) and with Phakopsora pachyrhizi (setting [5]) was 80 to 100% each time. Also, the pest or weed control at 100 ppm (in the test with Leptosphaeria nodorum; in test [1]; in test [2] (setting [6]); in test [2] (setting [7]); in test [3]; in the test on Cercospora beticola) was 80 to 100% in each case. The pest or weed control at 100 ppm in the test on Venturia inaequalis fell in the range of 0 to 80%.
Turning to `CCOCC(=O)OCOc1c(OC)ccnc1C(=O)N[C@H]1CCC[C@H](Oc2ccccc2)[C@@H](OC(=O)C2CCCC2)[C@H](C)OC1=O` [F237], the pest or weed control at 25 ppm in the test with Phakopsora pachyrhizi (setting [4]) is 80 to 100%; with Phakopsora pachyrhizi (setting [5]), under 0%. In addition, the pest or weed control at 100 ppm in test [1] fell in the range of 80 to 100%; in test [2] (setting [8]), 0 to 80%; in test [2] (setting [10]), 0 to 80%; in test [3], 0 to 80%; in the test on Cercospora beticola, 80 to 100%; in the test on Venturia inaequalis, 80 to 100%. The pest or weed control at 121.5 g/ha is under 0% in test [2] (setting [9]) and 0 to 80% in test [2] (setting [11]).
For the compound `COc1ccnc(C(=O)N[C@H]2CCC[C@H](Oc3ccccc3)[C@@H](OC(=O)C3CC3)[C@H](C)OC2=O)c1OCOC(=O)C(C)C` [F241], the pest or weed control at 25 ppm in the test on Phakopsora pachyrhizi (setting [4]) is 80 to 100%; with Phakopsora pachyrhizi (setting [5]), 0 to 80%. The pest or weed control at 100 ppm was in the range of 80 to 100% in test [1]; 80 to 100% in test [2] (setting [8]); 80 to 100% in test [2] (setting [10]); 0 to 80% in test [3]; 80 to 100% with Cercospora beticola; 0 to 80% in the test with Venturia inaequalis. Besides, the pest or weed control at 121.5 g/ha in test [2] (setting [9]) and in test [2] (setting [11]) was under 0% throughout.
For `COc1ccnc(C(=O)N[C@H]2CCC[C@H](OCC(C)C)[C@@H](Oc3ccccc3)[C@H](C)OC2=O)c1OCOC(C)=O` [F26], the pest or weed control at 25 ppm in the test on Phakopsora pachyrhizi (setting [4]) and in the test with Phakopsora pachyrhizi (setting [5]) was 80 to 100% in each case. For the same compound, the pest or weed control at 100 ppm (with Leptosphaeria nodorum; in test [2] (setting [6]); in test [2] (setting [7]); with Cercospora beticola) was 80 to 100% in each case.
Turning to `CCCCCO[C@H]1[C@H](C)OC(=O)[C@@H](NC(=O)c2nccc(OC)c2OCOC(C)=O)CCC[C@@H]1OC1CCCC1` [F166], the pest or weed control at 25 ppm with Phakopsora pachyrhizi (setting [4]) and in the test with Phakopsora pachyrhizi (setting [5]) was 80 to 100% throughout. For the same compound, the pest or weed control at 100 ppm (in test [1]; in test [2] (setting [6]); in test [2] (setting [7]); in test [3]; with Cercospora beticola) was 80 to 100% throughout.
`COc1ccnc(C(=O)N[C@H]2CCC[C@H](Oc3ccccc3)[C@@H](OC(=O)C3CC3)[C@H](C)OC2=O)c1OC(C)=O` [F242]: the results for the pest or weed control at 25 ppm in the test on Phakopsora pachyrhizi (setting [4]) and in the test on Phakopsora pachyrhizi (setting [5]) were 80 to 100% and 0 to 80%, respectively. The pest or weed control at 100 ppm in test [1] lay within 80 to 100%; in test [2] (setting [8]) it was 80 to 100%; in test [2] (setting [10]) it was 80 to 100%; in test [3], 0 to 80%; in the test on Cercospora beticola it was 80 to 100%; with Venturia inaequalis it was 0 to 80%. The pest or weed control at 121.5 g/ha in test [2] (setting [9]) and in test [2] (setting [11]) was 0 to 80% throughout.
Take `COc1ccnc(C(=O)N[C@H]2CCC[C@H](OCc3ccccc3)[C@@H](Oc3ccccc3)[C@H](C)OC2=O)c1OCOC(C)=O` [F31]: the pest or weed control at 100 ppm in the test with Leptosphaeria nodorum is 80 to 100%; in test [1] it was 80 to 100%; in test [2] (setting [6]) it was 80 to 100%; in test [2] (setting [7]), 80 to 100%; in test [3] it was 0 to 80%; in the test on Cercospora beticola, 80 to 100%.
With `CCCO[C@H]1CCC[C@H](NC(=O)c2nccc(OC)c2OCOC(=O)C(C)C)C(=O)O[C@@H](C)[C@@H]1Oc1ccccc1` [F139], the pest or weed control at 25 ppm in the test on Phakopsora pachyrhizi (setting [4]) and in the test with Phakopsora pachyrhizi (setting [5]) was 80 to 100% in each case. Also, the pest or weed control at 100 ppm is 80 to 100% in test [1]; 80 to 100% in test [2] (setting [6]); 80 to 100% in test [2] (setting [7]); under 0% in test [3]; 80 to 100% with Cercospora beticola.
Turning to `COc1ccnc(C(=O)N[C@H]2CCC[C@H](Oc3ccccc3)[C@@H](Oc3ccccc3)[C@H](C)OC2=O)c1OCOC(=O)C(C)C` [F36], the pest or weed control at 25 ppm in the test with Phakopsora pachyrhizi (setting [4]) and in the test with Phakopsora pachyrhizi (setting [5]) was 80 to 100% each time. Further, the pest or weed control at 100 ppm was in the range of 80 to 100% in test [1]; 80 to 100% in test [2] (setting [6]); 80 to 100% in test [2] (setting [7]); 0 to 80% in test [3]; 80 to 100% with Cercospora beticola.

For the origin of these results see US9681664B2, “Macrocyclic picolinamides as fungicides” (Dow Agrosciences LLC, priority 2012, dated 2017).
